Tested on: bioluminescent sensor strain Escherichia coli MT102 (pSB403)
Assay: Biosensor assay: quorum sensing inhibition, bioluminescence of the sensor strain
Assay type: cell-based
Settings: Escherichia coli, 4 h, 3oxo-C6-HSL 100 nM; bioluminescence after 4 hours at 30° C.
Description: Quorum sensing inhibition of the compounds was investigated with the aid of the bioluminescent sensor strain Escherichia coli MT102 (pSB403) (Winson et al., FEMS Microbiol. Lett. 163:185-92, 1998). Plasmid pSB403 contains the Photobacterium fischeri luxR gene together with the […] promoter region as a transcriptional fusion to the bioluminescence genes luxCDABE of Photorhabdus luminescence.
Inhibitory studies were conducted in a microtitre dish assay as follows: the E. coli sensor strain grown over night in LB medium (Sambrook et al., Molecular Cloning: A Laboratory Manual. 2nd Edn. Cold Spring Harbor Laboratory, New York, 1989) was diluted 1:4 and grown for another 1 hour at 30° C. After addition of 3oxo-C6-HSL (final concentration 100 nM) 100 μl of an exponential culture suspension were filled in the wells of a FluoroNunc Polysorp microtitre dish. The test compounds were added to the culture in different concentrations and bioluminescence was measured after 4 hours of incubation at 30° C. with a Lamda Fluoro 320 Plus reader (Bio-Tek Instruments). Inhibitor-mediated reduction of light emission was correlated with the value obtained without addition of the test compounds. IC50 values (concentration of inhibitor required for 50% inhibition of the signal compared to the signal without inhibitor) were determined by using a fitting function after drawing a graph of the activities of eight different inhibitor concentrations.

Compound: Cn1nccc1NC(=O)c1cnc(Cl)nc1C(F)(F)F [Compound 1, 2-Chloro-4-trifluoromethyl-pyrimidine-5-carboxylic acid (2-methyl-2H-pyrazol-3-yl)-amide]
- IC50: 1 to 50 µM

Compound: COc1ccc(NC(=O)c2sccc2Br)cn1 [Compound 2, 3-Bromo-thiophene-2-carboxylic acid (6-methoxy-pyridin-3-yl)-amide]
- IC50: 1 to 50 µM

Compound: O=C(Nc1cccnc1)c1cc(Cl)sc1Cl [Compound 3, 2,5-Dichloro-thio-phene-3-carboxylic acid pyridin-3-ylamide]
- IC50: 1 to 50 µM

Compound: COC(=O)c1ccsc1NC(=O)c1cnc(Cl)nc1C(F)(F)F [Compound 4, 2-[(2-Chloro-4-trifluoro-methyl-pyrimidine-5-carbonyl)-amino]-thiophene-3-carboxylic acid methyl ester]
- IC50: > 100 µM

Compound: COC(=O)c1scc(C)c1NC(=O)c1cccs1 [Compound 5, 4-Methyl-3-[(thiophene-2-carbonyl)-amino]-thiophene-2-carboxylic acid methyl ester]
- IC50: > 100 µM

Compound: O=C(Nc1cccc(C(F)(F)F)c1)c1cnc(Cl)nc1C(F)(F)F [Compound 6, 2-Chloro-4-trifluoromethyl-pyrimidine-5-carboxylic acid (3-trifluoromethyl-phenyl)-amide]
- IC50: 50 to 100 µM

Compound: O=C(Nc1ccc(OC(F)(F)F)cc1)c1cnc(Cl)nc1C(F)(F)F [Compound 7, 2-Chloro-4-trifluoromethyl-pyrimidine-5-carboxylic acid (4-trifluoromethoxy-phenyl)-amide]
- IC50: 1 to 50 µM

Compound: COc1ccc(NC(=O)c2cccnc2SC)cn1 [Compound 8, N-(6-Methoxy-pyridin-3-yl)-2-methylsulfanyl-nicotinamide]
- IC50: > 100 µM

Compound: COc1ccc(NC(=O)c2cncc(Br)c2)cn1 [Compound 9, 5-Bromo-N-(6-methoxy-pyridin-3-yl)-nicotinamide]
- IC50: > 100 µM

Compound: O=C(Nc1ccc(Br)cn1)c1cc(Cl)nc(Cl)c1 [Compound 10]
- IC50: > 100 µM

Compound: Cc1cc(C(=O)Nc2cccnc2)cc(Cl)n1 [Compound 11, 2-Chloro-6-methyl-N-pyridin-3-yl-iso-nicotinamide]
- IC50: 1 to 50 µM

Compound: CCn1nc(C)c(Br)c1C(=O)Nc1ccnn1C [Compound 12, 4-Bromo-2-ethyl-5-methyl-2H-pyrazole-3-carboxylic acid (2-methyl-2H-pyrazol-3-yl)-aide]
- IC50: 1 to 50 µM

Compound: Cc1cc(C(=O)Nc2ccnn2C)n(C(C)(C)C)n1 [Compound 13, 2-tert-Butyl-5-methyl-2H-pyrazole-3-carboxylic acid (2-methyl-2H-pyrazol-3-yl)-amide]
- IC50: > 100 µM

Compound: Cn1nc(-c2ccc(Cl)cc2)cc1NC(=O)c1cccs1 [Compound 14, Thiophene-2-carboxylic acid [5-(4-chloro-phenyl)-2-methyl-2H-pyrazol-3-yl]-amide]
- IC50: 1 to 50 µM

Compound: Cn1nc(-c2cccs2)cc1NC(=O)c1cccc(Cl)c1 [Compound 15, 3-Chloro-N-(2-methyl-5-thiophen-2-yl-2H-pyrazol-3-yl)-benzamide]
- IC50: 1 to 50 µM

Compound: Cn1nc(-c2ccc(Cl)cc2)cc1NC(=O)CCCCCBr [Compound 16, 6-Bromo-hexanoic acid [5-(4chloro-phenyl)-2-methyl-2H-pyrazol-3-yl]-amide]
- IC50: 1 to 50 µM

Compound: CCCCCCC(=O)Nc1cc(-c2ccccc2)nn1C [Compound 17, Heptanoic acid (2-methyl-5-phenyl-2H-pyrazol-3-yl)-amide]
- IC50: 1 to 50 µM

Compound: Cn1nc(-c2ccccc2)cc1NC(=O)CCCCCBr [Compound 18, 6-Bromo-hexanoic acid (2-methyl-5-phenyl-2H-pyrazol-3-yl)-amide]
- IC50: 1 to 50 µM

Compound: CCCCCCC(=O)Nc1cc(-c2cccs2)nn1C [Compound 19, Heptanoic acid (2-methyl-5-thiophen-2-yl-2H-pyrazol-3-yl)-amide]
- IC50: 1 to 50 µM

Compound: Cn1nc(-c2cccs2)cc1NC(=O)CCCCCBr [Compound 20, 6-Bromo-hexanoic acid (2-methyl-5-thiophen-2-yl-2H-pyrazol-3-yl)-amide]
- IC50: 1 to 50 µM

Compound: CCCCCCC(=O)Nc1c(Br)cnn1C [Compound 21]
- IC50: 1 to 50 µM

Compound: Cn1nccc1NC(=O)CCCCCBr [Compound 22, 6-Bromo-hexanoic acid (2-methyl-2H-pyrazole-3-yl)-amide]
- IC50: 1 to 50 µM

Compound: Cn1ncc(Br)c1NC(=O)CCCCCBr [Compound 23, 6-Bromo-hexanoic acid (4-bromo-2-methyl-2H-pyrazol-3-yl)-amide]
- IC50: 1 to 50 µM

Compound: CCCCCCC(=O)Nc1ccnn1C [Compound 24, Heptanoic acid (2-methyl-2H-pyrazol-3-yl)-amide]
- IC50: 1 to 50 µM

Compound: O=C(NNc1nccc(C(F)(F)F)n1)c1cccs1 [Compound 25, Thiophene-2carboxylic acid N′-(4-trifluoromethyl-pyrimidin-2-yl)-hydrazide]
- IC50: 1 to 50 µM

Compound: Cc1cc(C(=O)NNc2nccc(C(F)(F)F)n2)n(C)n1 [Compound 26, 2,5-Dimethyl-2H-pyrazole-3-carboxylic acid N′-(4-trifluoromethyl-pyrimidin-2-yl)-hydrazide]
- IC50: 1 to 50 µM

Compound: Cc1nc(C(F)(F)F)ccc1C(=O)NNC(=O)c1cccs1 [Compound 27, 2-Methyl-6-trifluoromethyl-nicotinic acid N′-(thiophene-2-carbonyl)-hydrazide]
- IC50: 1 to 50 µM

Compound: Cc1csc(C(=O)NNC(=O)c2ccc(C(F)(F)F)cc2)c1 [Compound 28, 4-Trifluoromethyl-benzoic acid N′-(4-methyl-thiophene-2-carbonyl)-hydrazide]
- IC50: 50 to 100 µM

Compound: O=C(NNC(=O)c1cccs1)c1ccc(OC(F)(F)F)cc1 [Compound 29, 4-Trifluoromethoxy-benzoic acid N′-(thiophene-2-carbonyl)-hydrazide]
- IC50: > 100 µM

Compound: COc1cscc1C(=O)NNC(=O)c1ccc(Cl)cc1 [Compound 30, 4-Chloro-benzoic acid N′-(4-methoxy-thiophene-3-carbonyl)-hydrazide]
- IC50: > 100 µM

Compound: O=C(NNC(=O)c1cccs1)c1cccc(Cl)c1 [Compound 31, 3-Chloro-benzoic acid N′-(thiophene-2-carbonyl)-hydrazide]
- IC50: 50 to 100 µM

Compound: Cc1c(C(=O)NNC(=O)c2cccs2)[n+]([O-])c2ccccc2[n+]1[O-] [Compound 32, N′-(3-Methyl-1,4dioxy-quinoxaline-2-carbonyl)-thiophene-2-carboxylic acid hydrazide]
- IC50: 50 to 100 µM

Compound: O=C(NNC(=O)c1sccc1Cl)c1cnn(-c2ccccc2)c1C(F)(F)F [Compound 33, 3-Chloro-thiophene-2-carboxylic acid N′-(1-phenyl-5-trifluoromethyl-1H-pyrazole-4-carbonyl)-hydrazide]
- IC50: > 100 µM

Compound: O=C(NNC(=O)c1cnn(-c2ccc(Cl)cc2)c1C(F)(F)F)c1cccs1 [Compound 34, Thio-phene-2-carboxylic acid N′-[1-(4-chloro-phenyl)-5-trifluoromethyl-1H-pyrazole-4-carbonyl]-hydrazide]
- IC50: 50 to 100 µM

Compound: O=C(NNC(=O)c1cccs1)c1ccco1 [Compound 35, Furan-2-carboxylic acid N′-(thiophene-2-carbonyl)-hydrazide]
- IC50: 50 to 100 µM

Compound: Cc1csc(C(=O)NNC(=O)c2ccco2)c1Cl [Compound 36, Furan-2-carboxylic acid N′-(3-chloro-4-methyl-thiophene-2-carbonyl)-hydrazide]
- IC50: 50 to 100 µM

Compound: CCOc1ccsc1C(=O)NNC(=O)c1ccco1 [Compound 37, Furan-2-carboxylic acid N′-(3-ethoxy-thiophene-2-carbonyl)-hydrazide]
- IC50: 50 to 100 µM

Compound: COc1c(C(=O)NNC(=O)c2ccco2)csc1Cl [Compound 38, Furan-2-carboxylic acid N′-(5-chloro-4-methoxy-thiophene-3-carbonyl)-hydrazide]
- IC50: 1 to 50 µM

Compound: O=C(NNC(=O)c1sccc1Br)c1ccco1 [Compound 39, Furan-2-carboxylic acid N′-(3-bromo-thiophene-2-carbonyl)-hydrazide]
- IC50: 1 to 50 µM

Compound: O=C(NNC(=O)c1cc(Cl)sc1Cl)c1ccco1 [Compound 40, Furan-2-carboxylic acid N′-(2,5-dichloro-thiophene-3-carbonyl)-hydrazide]
- IC50: 1 to 50 µM

Compound: O=C(NNC(=O)c1sc2ccccc2c1Cl)c1ccco1 [Compound 41, Furan-2-carboxylic acid N′-(3-chloro-benzo[b]thiophene-2-carbonyl)-hydrazide]
- IC50: 1 to 50 µM

Compound: COc1c(C(=O)NNC(=O)c2cccs2)csc1Br [Compound 42, Thiophene-2-carboxylic acid N′-(5-bromo-4-methoxy-thiophene-3-carbonyl)-hydrazide]
- IC50: 1 to 50 µM

Compound: Cc1csc(C(=O)NNC(=O)c2cccs2)c1Cl [Compound 43, Thiophene-2-carboxylic acid N′-(3-chloro-4-methyl-thiophene-2-carbonyl)-hydrazide]
- IC50: 1 to 50 µM

Compound: CCOc1ccsc1C(=O)NNC(=O)c1sccc1Cl [Compound 44, 3-Chloro-thiophene-2-carboxylic acid N′-(3-ethoxy-thiophene-2-carbonyl)-hydrazide]
- IC50: > 100 µM

Compound: CCOc1ccsc1C(=O)NNC(=O)c1cccs1 [Compound 45, Thiophene-2-carboxylic acid N′-(3-ethoxy-thiophene-2-carbonyl)-hydrazide]
- IC50: 1 to 50 µM

Compound: O=C(NNC(=O)c1cccs1)c1cccs1 [Compound 46, Thiophene-2-carboxylic acid N′-(thiophene-2-carbonyl)-hydrazide]
- IC50: 50 to 100 µM

Reference: patent US20090076012A1, “Modulation of pathogenicity” (priority 2002, published 2009)
